Measured values from patent US6414114B2, “Disulfides and thiol compounds” (Dovetail Technologies, Inc., priority 1998, dated 2002).

What was measured:
NS-1 mouse myeloma = settings: repeated administration as monotherapy soon after inoculation with relatively low doses of tumor; cited from earlier work
Cloudman S-91 melanoma = settings: melanomas already established; cited from earlier work
MOPC-315 myeloma = settings: administered along with melphalan; cited from earlier work
B16 melanoma = settings: administered along with cyclophosphamide; cited from earlier work
[1] = Solubility in acetonitrile/water; type: physicochemical; settings: solvent acetonitrile/water as given in the value

| Compound | survival rates (NS-1 mouse myeloma) | percent survival (Cloudman S-91 melanoma) | benefit as adjunct to chemotherapy (MOPC-315 myeloma) | benefit as adjunct to chemotherapy (B16 melanoma) | Solubility [1] |
| --- | --- | --- | --- | --- | --- |
| NCCC(=O)NCCSSCCNC(=O)CCN [β-alethine, Beta-alanyl cysteamine disulfide] | significantly increased survival rates | increase the percent survival | beneficial adjunct to chemotherapy | beneficial adjunct to chemotherapy |  |
| O=C(CCNC(=O)OCc1ccccc1)NC(CS)C(=O)O (stereo not drawn) [Cbz-beta-Ala-Cys] |  |  |  |  | Soluble in 20% Acetonitrile/Water |
| O=C(CCNC(=O)OCc1ccccc1)N[C@@H](CSSC[C@H](NC(=O)CCNC(=O)OCc1ccccc1)C(=O)O)C(=O)O [Cbz-βAla-Cystine-βAla-Cbz, Cbz-beta-Ala-Cystine-beta-Ala-Cbz] |  |  |  |  | Soluble in 30% Acetonitrile/water |
